“Also recorded” adds a separate entry of the source.
Assays:
Assay type in all cases: cell-based
cAMP [1] = assay: Dual-emission ratio (FRET) imaging of Epac-based cAMP reporters (ICUE1 and targeted fusions) in HEK-293 cells; conditions: for increase in the ratio of cyan to yellow emissions (FRET response): HEK293 cells expressing ICUE1, 10 μM ISO, 50 μM FSK, 10 μM PGE1, 300 μM 8-pCPT-2′-O-Me-cAMP, average ± S.E.M; for increase in emission ratio of cyan to yellow upon cAMP elevations: ECFP/citrine reporters with truncated Epac2, HEK-293 cells
Procedure: Cell Culture. […] Cells were then transfected with FuGENE-6 transfection reagent (Roche) or calcium phosphate and allowed to grow for 12-24 hours before imaging.
Imaging. Cells were washed twice with Hanks' balanced salt solution buffer after 12- to 24-h incubation at 37° C. culture medium. Cells were maintained in buffer in the dark at room temperature with addition of isoproterenol (Aldrich), forskolin (Calbiochem), Prostaglandin E1 (PGE1) (Sigma), and 8-(4-chloro-phenylthio)-2′-O-methyl adenosine 3′,5′-monophosphate (8-pCPT-2′-O-Me-cAMP) (Axxora Biolog) as indicated. Cells were also treated with P-(4,5-dimethoxy-2-nitrobenzyl) adenosine 3′,5′-monophosphate (DMNB-cAMP) (Molecular Probe).
Cells were imaged on a Zeiss Axiovert 200M microscope with a cooled charge-coupled device camera MicroMAX BFT512 (Roper Scientific) controlled by METAFLUOR 6.2 software (Universal Imaging). Dual-emission ratio imaging used a 420DF20 excitation filter, a 450DRLP dichroic mirror and two emission filters (475DF40 for ECFP, 535DF25 for citrine) alternated by a filter changer Lambda 10-2 (Sutter Instruments). Exposure time was 100-500 ms and images were taken every 8-30 s. Fluorescent images were background-corrected by subtracting autofluorescence intensities of untransfected cells (or background with no cells) from the emission intensities of fluorescent cells expressing reporters. The ratios of cyan to yellow emissions were then calculated at different time points and normalized by dividing all ratios by the emission ratio just prior to stimulation therefore setting the basal emission ratio to 1.

cAMP [2] = assay: 96-well live cell plate reading of HEK293 cells expressing ICUE3; conditions: for effect on ISO-stimulated response of ICUE3: PRO 10 μM
Procedure: Plate reading used a 420DF20 excitation filter and two emission filters (470DF40 for cyan and 535DF25 for yellow). A baseline was established in three cycles, each consisting of a full plate reading of yellow intensity, followed by a reading of cyan intensity. Cells were then treated with isoproterenol (ISO; Aldrich), forskolin (Calbiochem), H89, propranolol, and 3-isobutyl-1-methylxanthine (IBMX) as indicated. Readings were taken in six or twenty additional cycles. Each cycle lasted 60 to 145 sec. Baseline FRET ratios were calculated as the average ratio of yellow/cyan for each well before the addition of drug. FRET change was calculated as the percent increase of FRET ratio over baseline for each well during a given cycle. The FRET changes of all wells having undergone the same drug treatment were then averaged within each cycle, and that cycle was correlated with time.
Live cell plate reading. HEK293 cells were transfected with cDNA encoding ICUE reporters using calcium phosphate at 40% confluency and allowed to grow for 40 hours. Cells were then trypsinized and plated in a Costar 3603 96-well assay plate (Coming) at a density of 150,000 cells per well. After incubation for another 24 hours, cells were washed once with HBSS and left in 150 μl HBSS at 20-25° C. Fluorescence reading was taken on a FLUOstar OPTIMA fluorescence microplate reader (BMG Labtechnologies Inc.) using a 420DF20 excitation filter and two emission filters (470DF40 for cyan and […] for yellow). A baseline was established in three cycles, each consisting of a full plate reading of yellow intensity, followed by a reading of cyan intensity. Each cycle lasted between 64 and 145 seconds. Readings were taken in additional cycles. FRET change was calculated as the percent increase of emission ratios (cyan-to-yellow) over baseline for each well during a given cycle. To assess the efficacy of the assay, several statistical parameters were calculated, including Z factor, coefficient of variation, and signal-to-noise ratio (Zhang et al., J. Biomol. Screen. 4, 67-73, 1999).

cAMP [3] = assay: High throughput 96-well plate assay using ICUE2 stable HEK293 cells; conditions: 1 μM ISO, 100 μM IBMX, 50 μM FSK
Procedure: HEK293 cells which stably express ICUE2 (“ICUE2 stable HEK293 cells”) were grown to confluency in 10 cm dishes in DMEM, 10% FBS, 1% penicillin/streptomycin, and 250 μg/ml G418. HEK-293 cells were transfected with cDNA encoding ICUE2 using calcium phosphate at 40% confluency and allowed to grow for 40 hours. Cells were removed from the dish using 0.05% trypsin, spun down, and replaced with fresh media. ICUE2 stable HEK293 cells were counted on a hemocytometer using trypan blue stain. One hundred fifty thousand (150,000) cells were plated per well on a 96-well clear bottom assay plate in a total of 0.2 ml of media per […] and allowed to double once. Media was removed, cells were washed with Hanks buffered salt solution (HBSS) and then covered with 0.05 ml of HBSS per well. In a separate sterile plate, appropriate drugs were added to each well containing HBSS for a total volume of 0.05 ml. […] A baseline was established in three cycles, each consisting of a full plate reading of yellow intensity, followed by a reading of cyan intensity. Cells were then treated with isoproterenol (ISO; […] Readings were taken in six or twenty additional cycles. […] Baseline FRET ratios were calculated as the average ratio of yellow/cyan for each well before the addition of drug. FRET change was calculated as the percent increase of FRET ratio over baseline for each well during a given cycle. The FRET changes of all wells having undergone the same drug treatment were then averaged within each cycle, and that cycle was correlated with time.

[4] = 50 μM FSK, 10 μM PRO, 10 μM H89
[5] = plasma membrane-targeted ICUE1, 10 μM PGE1
[6] = ICUE1, 10 μM propranolol added after isoproterenol response reached plateau

## CO[C@@H]1[C@@H]2OP(=O)(O)OC[C@H]2O[C@H]1n1c(Sc2ccc(Cl)cc2)nc2c(N)ncnc21 [8-pCPT-2′-O-Me-cAMP, 8-(4-chloro-phenylthio)-2′-O-methyl adenosine 3′,5′-monophosphate]
cAMP [1]
  increase in the ratio of cyan to yellow emissions (FRET response): 12.8%±0.9
cAMP [1]; ICUE1, 300 μM
  time to produce a half-maximal increase in emission ratios (t1/2): 10 to 15 min

## COc1cc(COP2(=O)OCC3OC(n4cnc5c(N)ncnc54)C(O)C3O2)c([N+](=O)[O-])cc1OC (stereo not drawn) [DMNB-cAMP, P-(4,5-dimethoxy-2-nitrobenzyl) adenosine 3′,5′-monophosphate]
cAMP [1]; ICUE1, 100 μM DMNB-cAMP for 3 minutes, UV flash of 5 seconds
  increase of emission ratio after UV uncaging: 4.7%±0.7
cAMP [1]; ICUE1, 100 μM DMNB-cAMP, UV flash of 5 seconds
  time of emission ratio increase after UV uncaging: 15 to 30 s

## O=S(=O)(NCCNC/C=C/c1ccc(Br)cc1)c1cccc2cnccc12 [H89]
cAMP [2]; [4]
  effect on FSK-stimulated response of ICUE3: did not diminish the response of ICUE3; also recorded: appeared to increase the response amplitude

## CC(C)Cn1c(=O)n(C)c(=O)c2[nH]cnc21 [IBMX, 3-isobutyl-1-methylxanthine]
cAMP [3]
  character of ICUE2 response (in words): increased the amplitude and sustained the responses
cAMP [2]; 1 μM ISO, 100 μM IBMX
  effect on ISO-stimulated response of ICUE3: sustained the response and increased its amplitude

## CCCCC[C@H](O)/C=C/[C@H]1[C@H](O)CC(=O)[C@@H]1CCCCCCC(=O)O [PGE1, Prostaglandin E1]
cAMP [1]
  increase in the ratio of cyan to yellow emissions (FRET response): 13.3%±0.9
cAMP [1]; NLS-ICUE1, 10 μM PGE1
  FRET response in the nucleus: 3.4%±0.4
cAMP [1]; [5]
  emission ratio increase at the plasma membrane: 12.6%±0.9
  time of emission ratio increase at the plasma membrane: 2 to 3 min

## CC(C)NCC(O)COc1cccc2ccccc12 (stereo not drawn) [propranolol]
cAMP [1]; ICUE1, HEK293 cells, propranolol present
  effect on isoproterenol-stimulated FRET response: prevented the isoproterenol-stimulated response
cAMP [1]; [6]
  time of full recovery of emission ratio: 6 to 8 min
  time of initial decrease in emission ratio of cyan to yellow: 2 to 3 min
cAMP [2]; 0 sec., HEK293 cells expressing ICUE3, 1 μM ISO, 50 μM FSK, 10 μM PRO, 100 μM IBMX, 10 μM H89
  Average percent FRET response ± standard deviation, 0 sec.: 7.61% ± 3.19%
cAMP [2]; 1 μM ISO, 100 μM IBMX
  effect on ISO-stimulated response of ICUE3: inhibited
cAMP [2]; [4]
  effect on FSK-stimulated response of ICUE3: had no effect
cAMP [2]; 145 sec., HEK293 cells expressing ICUE3, 1 μM ISO, 50 μM FSK, 10 μM PRO, 100 μM IBMX, 10 μM H89
  Average percent FRET response ± standard deviation, 145 sec.: 8.1% ± 1.38%
cAMP [2]; 290 sec., HEK293 cells expressing ICUE3, 1 μM ISO, 50 μM FSK, 10 μM PRO, 100 μM IBMX, 10 μM H89
  Average percent FRET response ± standard deviation, 290 sec.: 6.54% ± 1.37%
cAMP [2]; 435 sec., HEK293 cells expressing ICUE3, 1 μM ISO, 50 μM FSK, 10 μM PRO, 100 μM IBMX, 10 μM H89
  Average percent FRET response ± standard deviation, 435 sec.: 3.73% ± 0.911%
cAMP [2]; 580 sec., HEK293 cells expressing ICUE3, 1 μM ISO, 50 μM FSK, 10 μM PRO, 100 μM IBMX, 10 μM H89
  Average percent FRET response ± standard deviation, 580 sec.: 2.57% ± 1.33%
cAMP [2]; 725 sec., HEK293 cells expressing ICUE3, 1 μM ISO, 50 μM FSK, 10 μM PRO, 100 μM IBMX, 10 μM H89
  Average percent FRET response ± standard deviation, 725 sec.: 1.83% ± 1.06%

B1: T316-A501: ECFP/citrine reporter with Epac2 amino acids 316-501 of SEQ ID NO:20 (protein, listed as Mus musculus)
chain: MLLLSQMGPDAHMRMILRKPPGQRTVDDLEIIYDELLHIKALSHLSTTVKRELAGVLIFESHAKGGTVLFNQGEEGTSWYIILKGSVNVVIYGKGVVCTLHEGDDFGKLALVNDAPRAASIVLREDNCHFLRVDKEDFNRILRDVEANTVRLKEHDQDVLVLEKVPAGNRAANQGNSQPQQKYTVM
modifications: fused between ECFP and citrine
cAMP [1]
  increase in emission ratio of cyan to yellow upon cAMP elevations: 5%

B2: P350-A501: ECFP and citrine fused with Epac2 domain, amino acids 350-501 of SEQ ID NO:20 (protein, listed as Mus musculus)
chain: ELLHIKALSHLSTTVKRELAGVLIFESHAKGGTVLFNQGEEGTSWYIILKGSVNVVIYGKGVVCTLHEGDDFGKLALVNDAPRAASIVLREDNCHFLRVDKEDFNRILRDVEANTVRLKEHDQDVLVLEKVPAGNRAANQGNSQPQQKYTVM
modifications: fused between ECFP and citrine
cAMP [1]
  increase in emission ratio of cyan to yellow upon cAMP elevations: did not show a cAMP-dependent FRET change

Reference: US8236523B2, “Camp reporters and high throughput assays” (The Johns Hopkins University, priority 2004, dated 2012)
